In patent US20210236784A1, “DEVICE FOR ORAL DELIVERY OF ACTIVE AGENTS” (Entrega Inc., priority 2015, published 2021) one finds bioavailability data, which are given here for 1 molecule.

This series is described as follows: Surgical Bioavailability Assay. The series is classed as in vivo. Particulars: pig; octreotide; porcine surgical model, device/dosage form placed in the intestine (jejunum, ileum); from active agent levels in blood samples; FIG. 23. Here is the method: To determine bioavailability, mucoadhesive devices according to aspects of the present disclosure, as well as comparative dosage forms, are tested by a surgical model (Surgical Bioavailability Assay).
Surgical Bioavailability Assay. In the Surgical Bioavailability Assay, a porcine model is used, in which the animals undergo open surgery such that devices and/or dosage forms to be tested can be placed at regions of the intestine of interest, such as the jejunum and ileum. After administration of anesthesia, a ventral midline incision is made to gain access to the animal's abdominal cavity. The jejunum and ileum are exposed, and incisions are made to manually place the devices and/or dosage forms being tested. After placement of the device and/or dosage form is complete, the intestinal incisions are closed, and the midline incision can also be temporarily closed. Also, access can be made for blood collection via the carotid artery or jugular vein. The animal can be kept under anesthesia for up to 4 hours to allow for blood collection, such as at 5 mins, 15 mins, 30 mins, 60 mins, 90 mins, and 2 hours after oral dosage form placement. Blood samples can also be collected prior to the surgical procedure. The percent bioavailability of the active agent provided with the devices and/or dosage forms is determined on the basis of the active agent levels detected in these blood samples. […]

Regarding `C[C@@H](O)[C@@H]1NC(=O)[C@H](CCCCN)NC(=O)[C@@H](Cc2c[nH]c3ccccc23)NC(=O)[C@H](Cc2ccccc2)NC(=O)[C@@H](NC(=O)[C@H](N)Cc2ccccc2)CSSC[C@@H](C(=O)N[C@H](CO)[C@@H](C)O)NC1=O` [octreotide solution, octreotide], the bioavailability (commonly dose-corrected exposure relative to a reference, in per cent) is approximately 1%.
